Test results published in patent publication US10081632B2, “Substituted tetrahydropyrido[3′,2′:4,5]pyrrolo[1,2-α]pyrazine-2-carboxamides as RSK inhibitors” (Phoenix Molecular Designs, priority 2016, dated 2018).
Entries after “also recorded” stand apart in the source; their conditions may differ.

Experiments:
MDA-MB-231 cells [1] = test: Soft agar growth inhibition assay; type: cell-based; conditions: Homo sapiens, MDA-MB-231; growth in soft agar (SA); read-out: MDA-MB-231 IC50 (SA)
[2] = Solubility assessment, 20 mg/ml solution; type: physicochemical; conditions: for Solubility, 20 mg/ml Solution: 100 mM in DMSO diluted in DMEM growth media to 20 mg/ml
Protocol: Solubility is an important property for therapeutic drug candidates. Poor solubility can lead to low bioavailability resulting in suboptimal drug delivery. It can also prevent the evaluation of test agents in animals because the concentration(s) needed to achieve the desired effect cannot be achieved to poor solubility. For solubility assessments, small molecules targeting RSK were compared. For these assessments, 100 mM solutions of the compounds dissolved in DMSO were diluted in DMEM growth media (Life Technologies) supplemented with fetal bovine serum (FBS, Life Technologies) and 100 units/ml penicillin and 100 units/ml streptomycin (Life Technologies) to make 20 mg/ml solutions. Once diluted, the solutions were vortexed and examined for the formation of precipitates. […] For Compound 26, a 100 mM solution of the compound dissolved in DMSO was diluted in phosphate buffered saline (Life Technologies) to make a 20 mg/ml solution. The stock of […] was chosen because this is the upper end of what would be required to dose mice for a range of studies including MTD, PK, PD and efficacy. The pH of this solution was determined to be 2, as previously described. […] At high concentrations some RSK inhibitors were highly soluble while others were not. Compound 0 is (R)—N-(1-benzyl-1H-pyrazol-4-yl)-9-methyl-6-oxo-6,7,8,9-tetrahydropyrido[3′,2′:4,5]pyrrolo[1,2-a]pyrazine-2-carboxamide. Compound 0 was not soluble, whereas Compounds 18, 20, 21, 25 and 26 were soluble under the same conditions (Table 5).

CD34+ cells = test: Colony forming unit hematopoietic stem cell assay; type: cell-based, human
Protocol: The hematopoietic colony forming cell assay was conducted based on a protocol outlined by StemCell Technologies. […] Following the addition of CD34^+ cells isolated from human cord blood or peripheral blood (StemCell Technologies) at a final concentration of 5×10^2 cells per dish, the tubes were vortexed and allowed to stand for 5 minutes at room temperature. Next, the MethoCult mixtures were dispensed into 35 mm dishes (Corning Incorporated) through blunt end needles (StemCell Technologies) and 5 ml syringes (BD Biosciences) at a volume of 1.1 ml per dish. The medium was evenly distributed across the surface of each dish by gentle tilting and rotation. The dishes were then placed in a 100 mm culture dish (Grenier Bio-One) containing additional 35 mm dishes with sterile water to maintain humidity. […] The number of myeloid and erythroid derived colonies in both the treated and control dishes were counted and compared.

RSK2 = RSK2 (Homo sapiens (Human), UniProt P51812); test: Radioisotope kinase assay (SignalChem), RSK2; type: biochemical; conditions: 33P-ATP, 30° C., 15 minutes
Protocol: The assay conditions for the RSK2 kinase target were optimized to yield acceptable enzymatic activity. In addition, the assays were optimized to give high signal-to-noise ratio.
Radioisotope assays (SignalChem) were performed for the evaluation of the kinase target profiling and all assays were performed in a designated radioactive working area. The kinase targets were RSK1, RSK2, RSK3, RSK4 and MK2.
The assay was initiated by the addition of ^33P-ATP and the reaction mixture incubated at 30° C. for 15 minutes. After the incubation period, the assay was terminated by spotting 10 μL of the reaction mixture onto Multiscreen phosphocellulose P81 plate. The Multiscreen phosphocellulose P81 plate was washed 3 times for approximately 15 minutes each in a 1% phosphoric acid solution. The radioactivity on the P81 plate was counted in the presence of scintillation fluid in a Trilux scintillation counter.
Blank controls were set up for each target kinase which included all the assay components except the addition of the appropriate substrate (which was replaced with equal volume of assay dilution buffer). The corrected activity for each target kinase was determined by removing the blank control value.

SUM149-PTXR cells [3] = test: Monolayer growth inhibition, crystal violet assay; type: cell-based; conditions: Homo sapiens; SUM149-PTXR (TNBC, BRCA Mutant), 5 days, single dose on day 1
Excerpt: (§1) In all instances a single dose was given on day 1 of the experiment.

HCC1143 cells [4] = test: Monolayer growth inhibition, crystal violet assay; type: cell-based; conditions: Homo sapiens; HCC1143 (TNBC), 5 days, single dose on day 1
Excerpt: as §1

MDA-MB-231 cells [5] = test: Monolayer growth inhibition, crystal violet assay; type: cell-based; conditions: Homo sapiens; MDA-MB-231 (TNBC), 5 days, single dose on day 1
Excerpt: as §1

SUM149 cells [6] = test: Monolayer growth inhibition, crystal violet assay; type: cell-based; conditions: Homo sapiens; SUM149 (TNBC, BRCA Mutant), 5 days, single dose on day 1
Excerpt: as §1

PC3 cells [7] = test: Monolayer growth inhibition, crystal violet assay; type: cell-based; conditions: Homo sapiens, PC-3; PC3 (Prostate), 5 days, single dose on day 1
Excerpt: as §1

MDA-MB-435 cells [8] = test: Monolayer growth inhibition, crystal violet assay; type: cell-based; conditions: Homo sapiens; MDA-MB-435 (Melanoma), 5 days, single dose on day 1
Excerpt: as §1

4T1 cells [9] = test: Monolayer growth inhibition, crystal violet assay; type: cell-based; conditions: Mus musculus; 4T1 (TNBC), 5 days, single dose on day 1
Excerpt: as §1

HCC1937 cells [10] = test: Monolayer growth inhibition, Alamar blue assay; type: cell-based; conditions: Homo sapiens; HCC1937 (TNBC, BRCA Mutant), 5 days, single dose on day 1
Excerpt: as §1

HCC1143 cells [11] = test: Monolayer growth inhibition, Alamar blue assay; type: cell-based; conditions: Homo sapiens; HCC1143 (TNBC), 5 days, single dose on day 1
Excerpt: as §1

MDA-MB-231 cells [12] = test: Monolayer growth inhibition, Alamar blue assay; type: cell-based; conditions: Homo sapiens; MDA-MB-231 (TNBC), 5 days, single dose on day 1
Excerpt: as §1

MDA-MB-468 cells [13] = test: Monolayer growth inhibition, Alamar blue assay; type: cell-based; conditions: Homo sapiens; MDA-MB-468 (TNBC), 5 days, single dose on day 1
Excerpt: as §1

SUM149 cells [14] = test: Monolayer growth inhibition, Alamar blue assay; type: cell-based; conditions: Homo sapiens; SUM149 (TNBC, BRCA Mutant), 5 days, single dose on day 1
Excerpt: as §1

JIMT-1 cells [15] = test: Monolayer growth inhibition, Alamar blue assay; type: cell-based; conditions: Homo sapiens; JIMT-1 (HER2), 5 days, single dose on day 1
Excerpt: as §1

PC3 cells [16] = test: Monolayer growth inhibition, Alamar blue assay; type: cell-based; conditions: Homo sapiens, PC-3; PC3 (Prostate), 5 days, single dose on day 1
Excerpt: as §1

MDA-MB-435 cells [17] = test: Monolayer growth inhibition, Alamar blue assay; type: cell-based; conditions: Homo sapiens; MDA-MB-435 (Melanoma), 5 days, single dose on day 1
Excerpt: as §1

4T1 cells [18] = test: Monolayer growth inhibition, Alamar blue assay; type: cell-based; conditions: Mus musculus; 4T1 (TNBC), 5 days, single dose on day 1
Excerpt: as §1

HCC1937 cells [19] = test: Monolayer growth inhibition, crystal violet assay; type: cell-based; conditions: Homo sapiens; HCC1937 (TNBC, BRCA Mutant), 5 days, single dose on day 1
Excerpt: (§2) In all instances a single dose was given on day 1 of the experiment. […] Complete (100%) growth suppression was achievable with several of the compounds in multiple different cell lines.

T47D cells [20] = test: Monolayer growth inhibition, crystal violet assay; type: cell-based; conditions: Homo sapiens; T47D (ER/PR), 5 days, single dose on day 1
Excerpt: as §2

MDA-MB-468 cells [21] = test: Monolayer growth inhibition, crystal violet assay; type: cell-based; conditions: Homo sapiens; MDA-MB-468 (TNBC), 5 days, single dose on day 1
Excerpt: as §2

JIMT-1 cells [22] = test: Monolayer growth inhibition, crystal violet assay; type: cell-based; conditions: Homo sapiens; JIMT-1 (HER2), 5 days, single dose on day 1
Excerpt: as §2

SUM149-PTXR cells [23] = test: Monolayer growth inhibition, Alamar blue assay; type: cell-based, Human; conditions: Homo sapiens; SUM149-PTXR (TNBC, BRCA Mutant), 5 days, single dose on day 1
Excerpt: as §1

T47D cells [24] = test: Monolayer growth inhibition, Alamar blue assay; type: cell-based, Human; conditions: Homo sapiens; T47D (ER/PR), 5 days, single dose on day 1
Excerpt: as §1

Sequence of RSK2 (P51812 whole entry): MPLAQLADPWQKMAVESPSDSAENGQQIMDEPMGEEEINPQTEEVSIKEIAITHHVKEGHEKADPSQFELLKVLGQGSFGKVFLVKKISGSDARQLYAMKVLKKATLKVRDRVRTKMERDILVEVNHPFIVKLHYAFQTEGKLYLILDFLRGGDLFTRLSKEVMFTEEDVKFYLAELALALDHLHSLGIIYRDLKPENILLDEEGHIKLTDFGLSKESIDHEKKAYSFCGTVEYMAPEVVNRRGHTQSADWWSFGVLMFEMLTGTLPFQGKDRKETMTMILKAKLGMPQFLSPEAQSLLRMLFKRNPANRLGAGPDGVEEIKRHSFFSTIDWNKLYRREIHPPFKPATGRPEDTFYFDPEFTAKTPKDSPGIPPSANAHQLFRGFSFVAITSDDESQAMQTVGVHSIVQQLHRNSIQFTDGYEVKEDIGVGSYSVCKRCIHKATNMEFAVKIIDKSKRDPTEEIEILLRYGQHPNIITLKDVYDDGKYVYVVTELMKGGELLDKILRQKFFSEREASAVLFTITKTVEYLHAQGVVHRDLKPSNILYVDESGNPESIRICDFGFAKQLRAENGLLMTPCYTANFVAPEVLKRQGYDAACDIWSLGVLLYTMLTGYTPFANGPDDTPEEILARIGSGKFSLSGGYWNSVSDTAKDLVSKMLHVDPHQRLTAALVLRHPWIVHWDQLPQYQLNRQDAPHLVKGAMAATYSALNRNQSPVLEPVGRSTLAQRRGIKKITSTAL

C[C@@H]1CNC(=O)c2cc3ccc(C(=O)Nc4cnn(Cc5ccccc5)c4)nc3n21 [Compound 0, (R)—N-(1-benzyl-1H-pyrazol-4-yl)-9-methyl-6-oxo-6,7,8,9-tetrahydropyrido[3′,2′:4,5]pyrrolo[1,2-a]pyrazine-2-carboxamide, reference compound]
IC50 (MDA-MB-231 cells [1]): 200 nM | Solubility, 20 mg/ml Solution [2]: not soluble; also recorded: poor or nonexistent solubility; also recorded: Precipitate | IC50 (CD34+ cells; Homo sapiens, Hematopoietic stem cell, CD34+ cells from peripheral blood, read-out: CD34+ (PB) IC50): 10 µM | Therapeutic Window (CD34+ cells; ratio IC50 against CD34+ cells and MDA-MB-231 cells (SA)): 50X

CN1CCc2oc3ccc(NC(=O)c4cnn(Cc5ccccc5)c4)cc3c2C1 [Compound 13, 1-benzyl-N-(2-methyl-1,2,3,4-tetrahydrobenzofuro[3,2-c]pyridin-8-yl)-1H-pyrazole-4-carboxamide]
IC50 (RSK2): > 1 µM

O=C(Nc1ccc2c(CN3CCOCC3)coc2c1)c1cnn(Cc2ccccc2)c1 [Compound 7, 1-benzyl-N-(3-(morpholinomethyl)benzofuran-6-yl)-1H-pyrazole-4-carboxamide]
IC50 (RSK2): > 10 µM

CN1CCN(Cc2c[nH]c3ccc(NC(=O)c4cnn(Cc5ccccc5)c4)cc23)CC1 [Compound 3, 1-Benzyl-N-(3-((4-methylpiperazin-1-yl)methyl)-1H-indol-5-yl)-1H-pyrazole-4-carboxamide]
IC50 (RSK2): > 10 µM

O=C(Nc1ccc2scc(CN3CCNCC3)c2c1)c1cnn(Cc2ccccc2)c1 [Compound 6, 1-Benzyl-N-(3-(piperazin-1-ylmethyl)benzo[b]thiophen-5-yl)-1H-pyrazole-4-carboxamide]
IC50 (RSK2): > 10 µM

O=C(Nc1ccc2c(CN3CCNCC3)coc2c1)c1cnn(Cc2ccccc2)c1 [Compound 10, 1-benzyl-N-(3-(piperazin-1-ylmethyl)benzofuran-6-yl)-1H-pyrazole-4-carboxamide]
IC50 (RSK2): > 1 µM

O=C(Nc1ccc2scc(CN3CCOCC3)c2c1)c1cnn(Cc2ccccc2)c1 [Compound 5, 1-Benzyl-N-(3-(morpholinomethyl)benzo[b]thiophen-5-yl)-1H-pyrazole-4-carboxamide]
IC50 (RSK2): > 10 µM

O=C(Nc1ccc2[nH]cc(CN3CCOCC3)c2c1)c1cnn(Cc2ccccc2)c1 [Compound 1, 1-Benzyl-N-(3-(morpholinomethyl)-1H-indol-5-yl)-1H-pyrazole-4-carboxamide]
IC50 (RSK2): > 10 µM

CN1CCc2[nH]c3ccc(NC(=O)c4cnn(Cc5ccccc5)c4)cc3c2C1 [Compound 14, 1-benzyl-N-(2-methyl-2,3,4,5-tetrahydro-1H-pyrido[4,3-b]indol-8-yl)-1H-pyrazole-4-carboxamide]
IC50 (RSK2): > 1 µM

O=C(Nc1ccc2c(CN3CCOCC3)c[nH]c2c1)c1cnn(Cc2ccccc2)c1 [Compound 2, 1-Benzyl-N-(3-(morpholinomethyl)-1H-indol-6-yl)-1H-pyrazole-4-carboxamide]
IC50 (RSK2): > 10 µM

C[C@@H]1CNC(=O)c2cc3ccc(NC(=O)c4cnn(Cc5ccccc5)c4)cc3n21 [Compound 11, (R)-1-benzyl-N-(4-methyl-1-oxo-1,2,3,4-tetrahydropyrazino[1,2-a]indol-7-yl)-1H-pyrazole-4-carboxamide]
IC50 (SUM149-PTXR cells [3]): 44.6 ± 3.9 µM | IC50 (HCC1143 cells [4]): > 50 µM | IC50 (MDA-MB-231 cells [5]): 45 ± 8.7 µM | IC50 (SUM149 cells [6]): 33.6 ± 14.5 µM | IC50 (PC3 cells [7]): 45.6 ± 4.8 µM | IC50 (MDA-MB-435 cells [8]): 17.9 ± 7.3 µM | IC50 (4T1 cells [9]): 39.5 ± 9.4 µM | IC50 (HCC1937 cells [10]): > 50 µM | IC50 (HCC1143 cells [11]): > 50 µM | IC50 (MDA-MB-231 cells [12]): > 50 µM | IC50 (MDA-MB-468 cells [13]): > 50 µM | IC50 (SUM149 cells [14]): 36 ± 12.8 µM | IC50 (JIMT-1 cells [15]): > 50 µM | IC50 (PC3 cells [16]): 44.9 ± 8.8 µM | IC50 (MDA-MB-435 cells [17]): 24.6 ± 10.3 µM | IC50 (4T1 cells [18]): 48.5 ± 2.6 µM | IC50 (HCC1937 cells [19]): > 50 µM | IC50 (T47D cells [20]): 30.1 ± 3.3 µM | IC50 (MDA-MB-468 cells [21]): 37.3 ± 2.3 µM | IC50 (JIMT-1 cells [22]): > 50 µM | IC50 (SUM149-PTXR cells [23]): 36.4 ± 11.9 µM | IC50 (T47D cells [24]): 48.1 ± 3.3 µM

C[C@@H]1CNC(=O)c2cc3ccc(C(=O)Nc4cnn(CC5CCN(C)CC5)c4)nc3n21 [Compound 20, (R)-9-methyl-N-(1-((1-methylpiperidin-4-yl)methyl)-1H-pyrazol-4-yl)-6-oxo-6,7,8,9-tetrahydropyrido[3′,2′:4,5]pyrrolo[1,2-a]pyrazine-2-carboxamide]
Solubility, 20 mg/ml Solution [2]: Soluble | pH of 20 mg/ml solution ([2]; DMSO stock diluted in DMEM, pH test strips): 8

O=C(Nc1ccc2occ(CN3CCNCC3)c2c1)c1cnn(Cc2ccccc2)c1 [Compound 9, 1-benzyl-N-(3-(piperazin-1-ylmethyl)benzofuran-5-yl)-1H-pyrazole-4-carboxamide]
IC50 (RSK2): > 10 µM

O=C(Nc1ccc2occ(CN3CCOCC3)c2c1)c1cnn(Cc2ccccc2)c1 [Compound 8, 1-benzyl-N-(3-(morpholinomethyl)benzofuran-5-yl)-1H-pyrazole-4-carboxamide]
IC50 (RSK2): > 10 µM

O=C(Nc1ccc2cc3n(c2c1)CCNC3=O)c1cnn(Cc2ccccc2)c1 [Compound 12, 1-benzyl-N-(1-oxo-1,2,3,4-tetrahydropyrazino[1,2-a]indol-7-yl)-1H-pyrazole-4-carboxamide]
IC50 (RSK2): > 1 µM

CN1CCN(Cc2c[nH]c3cc(NC(=O)c4cnn(Cc5ccccc5)c4)ccc23)CC1 [Compound 4, 1-Benzyl-N-(3-((4-methylpiperazin-1-yl)methyl)-1H-indol-6-yl)-1H-pyrazole-4-carboxamide]
IC50 (RSK2): > 10 µM
